Data reported in ChEMBL document CHEMBL5442219.

Columns and labels:
Details in all cases: Compound concentration 10 µM
[1] = target: T1, Muscarinic acetylcholine receptor M5 (Homo sapiens) (UniProt P08912)
T1 sequence (whole entry): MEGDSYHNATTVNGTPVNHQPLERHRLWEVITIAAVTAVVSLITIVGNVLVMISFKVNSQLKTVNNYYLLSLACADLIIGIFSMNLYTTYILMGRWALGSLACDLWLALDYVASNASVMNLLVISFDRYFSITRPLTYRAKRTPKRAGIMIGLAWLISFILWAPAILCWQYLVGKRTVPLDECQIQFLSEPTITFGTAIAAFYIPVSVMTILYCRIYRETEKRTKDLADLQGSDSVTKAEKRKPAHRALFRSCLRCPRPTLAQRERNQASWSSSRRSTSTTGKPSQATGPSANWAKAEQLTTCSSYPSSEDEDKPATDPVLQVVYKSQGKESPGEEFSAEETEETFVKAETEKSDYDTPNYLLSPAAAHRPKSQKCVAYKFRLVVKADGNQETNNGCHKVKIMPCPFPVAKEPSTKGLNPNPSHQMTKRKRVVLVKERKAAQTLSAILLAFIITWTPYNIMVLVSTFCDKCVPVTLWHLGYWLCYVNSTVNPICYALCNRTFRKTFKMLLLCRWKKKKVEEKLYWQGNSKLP
Description: PDSP Primary Binding target: CHRM5 - Compounds are tested at 10 uM concentration, plate are incubated at room temperature in the dark for 90 minutes. Reaction are stopped by vacuum filtration onto 0.3% polyethyleneimine soaked filter mats using Filtermate harvester. Scintilation cocktail is then melted onto microwave-dried filters on a hot plate and the radio activity is counted in Microbia counter.

[2] = target: T2, D(4) dopamine receptor (Homo sapiens) (UniProt P21917)
T2 sequence (whole entry): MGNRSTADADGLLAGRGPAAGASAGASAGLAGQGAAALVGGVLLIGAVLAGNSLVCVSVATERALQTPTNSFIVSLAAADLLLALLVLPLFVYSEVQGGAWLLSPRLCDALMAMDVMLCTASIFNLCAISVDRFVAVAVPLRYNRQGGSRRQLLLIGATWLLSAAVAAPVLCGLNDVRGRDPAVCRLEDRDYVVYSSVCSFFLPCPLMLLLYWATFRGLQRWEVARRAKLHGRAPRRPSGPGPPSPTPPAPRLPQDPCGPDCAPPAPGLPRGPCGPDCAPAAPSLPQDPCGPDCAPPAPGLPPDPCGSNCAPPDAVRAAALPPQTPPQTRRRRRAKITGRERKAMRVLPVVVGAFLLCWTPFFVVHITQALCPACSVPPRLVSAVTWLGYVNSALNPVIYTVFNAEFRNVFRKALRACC
Description: PDSP Primary Binding target: DRD4 - Compounds are tested at 10 uM concentration, plate are incubated at room temperature in the dark for 90 minutes. Reaction are stopped by vacuum filtration onto 0.3% polyethyleneimine soaked filter mats using Filtermate harvester. Scintilation cocktail is then melted onto microwave-dried filters on a hot plate and the radio activity is counted in Microbia counter.

[3] = target: T3, Alpha-2B adrenergic receptor (Homo sapiens) (UniProt P18089)
T3 sequence (whole entry): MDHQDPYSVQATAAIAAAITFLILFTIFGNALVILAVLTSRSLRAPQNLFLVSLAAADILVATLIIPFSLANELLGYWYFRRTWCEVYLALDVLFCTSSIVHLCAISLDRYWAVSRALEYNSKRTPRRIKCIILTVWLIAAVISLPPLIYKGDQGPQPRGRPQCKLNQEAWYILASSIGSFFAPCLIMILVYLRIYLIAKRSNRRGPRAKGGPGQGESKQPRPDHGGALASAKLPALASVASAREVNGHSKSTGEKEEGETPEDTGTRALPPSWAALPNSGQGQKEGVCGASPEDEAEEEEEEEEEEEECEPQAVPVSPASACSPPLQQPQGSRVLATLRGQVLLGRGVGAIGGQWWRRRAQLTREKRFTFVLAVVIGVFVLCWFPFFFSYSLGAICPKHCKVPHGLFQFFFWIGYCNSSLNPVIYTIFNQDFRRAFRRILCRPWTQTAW
Description: PDSP Primary Binding target: ADRA2B - Compounds are tested at 10 uM concentration, plate are incubated at room temperature in the dark for 90 minutes. Reaction are stopped by vacuum filtration onto 0.3% polyethyleneimine soaked filter mats using Filtermate harvester. Scintilation cocktail is then melted onto microwave-dried filters on a hot plate and the radio activity is counted in Microbia counter.

[4] = target: Sodium-dependent noradrenaline transporter (Homo sapiens) (UniProt P23975)
Description: PDSP Primary Binding target: SLC6A2 - Compounds are tested at 10 uM concentration, plate are incubated at room temperature in the dark for 90 minutes. Reaction are stopped by vacuum filtration onto 0.3% polyethyleneimine soaked filter mats using Filtermate harvester. Scintilation cocktail is then melted onto microwave-dried filters on a hot plate and the radio activity is counted in Microbia counter.

[5] = target: Beta-1 adrenergic receptor (Homo sapiens) (UniProt P08588)
Description: PDSP Primary Binding target: ADRB1 - Compounds are tested at 10 uM concentration, plate are incubated at room temperature in the dark for 90 minutes. Reaction are stopped by vacuum filtration onto 0.3% polyethyleneimine soaked filter mats using Filtermate harvester. Scintilation cocktail is then melted onto microwave-dried filters on a hot plate and the radio activity is counted in Microbia counter.

[6] = target: Mu-type opioid receptor (Homo sapiens) (UniProt P35372)
Description: PDSP Primary Binding target: OPRM1 - Compounds are tested at 10 uM concentration, plate are incubated at room temperature in the dark for 90 minutes. Reaction are stopped by vacuum filtration onto 0.3% polyethyleneimine soaked filter mats using Filtermate harvester. Scintilation cocktail is then melted onto microwave-dried filters on a hot plate and the radio activity is counted in Microbia counter.

[7] = target: D(3) dopamine receptor (Homo sapiens) (UniProt P35462)
Description: PDSP Primary Binding target: DRD3 - Compounds are tested at 10 uM concentration, plate are incubated at room temperature in the dark for 90 minutes. Reaction are stopped by vacuum filtration onto 0.3% polyethyleneimine soaked filter mats using Filtermate harvester. Scintilation cocktail is then melted onto microwave-dried filters on a hot plate and the radio activity is counted in Microbia counter.

[8] = target: T4, Muscarinic acetylcholine receptor M2 (Homo sapiens) (UniProt P08172)
T4 sequence (whole entry): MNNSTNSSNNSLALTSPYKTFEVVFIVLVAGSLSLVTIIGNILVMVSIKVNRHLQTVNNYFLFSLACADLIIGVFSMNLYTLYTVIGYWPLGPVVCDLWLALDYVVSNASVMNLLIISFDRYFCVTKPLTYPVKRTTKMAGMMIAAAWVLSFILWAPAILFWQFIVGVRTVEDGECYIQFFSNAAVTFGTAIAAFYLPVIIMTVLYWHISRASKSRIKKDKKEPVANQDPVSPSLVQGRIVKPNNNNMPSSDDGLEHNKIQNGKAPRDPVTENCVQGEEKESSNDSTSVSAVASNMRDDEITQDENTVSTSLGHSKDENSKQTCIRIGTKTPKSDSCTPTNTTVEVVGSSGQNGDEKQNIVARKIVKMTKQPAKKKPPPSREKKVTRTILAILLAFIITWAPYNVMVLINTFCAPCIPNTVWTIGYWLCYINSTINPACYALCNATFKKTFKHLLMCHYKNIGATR
Description: PDSP Primary Binding target: CHRM2 - Compounds are tested at 10 uM concentration, plate are incubated at room temperature in the dark for 90 minutes. Reaction are stopped by vacuum filtration onto 0.3% polyethyleneimine soaked filter mats using Filtermate harvester. Scintilation cocktail is then melted onto microwave-dried filters on a hot plate and the radio activity is counted in Microbia counter.

[9] = target: T5, Muscarinic acetylcholine receptor M4 (Homo sapiens) (UniProt P08173)
T5 sequence (whole entry): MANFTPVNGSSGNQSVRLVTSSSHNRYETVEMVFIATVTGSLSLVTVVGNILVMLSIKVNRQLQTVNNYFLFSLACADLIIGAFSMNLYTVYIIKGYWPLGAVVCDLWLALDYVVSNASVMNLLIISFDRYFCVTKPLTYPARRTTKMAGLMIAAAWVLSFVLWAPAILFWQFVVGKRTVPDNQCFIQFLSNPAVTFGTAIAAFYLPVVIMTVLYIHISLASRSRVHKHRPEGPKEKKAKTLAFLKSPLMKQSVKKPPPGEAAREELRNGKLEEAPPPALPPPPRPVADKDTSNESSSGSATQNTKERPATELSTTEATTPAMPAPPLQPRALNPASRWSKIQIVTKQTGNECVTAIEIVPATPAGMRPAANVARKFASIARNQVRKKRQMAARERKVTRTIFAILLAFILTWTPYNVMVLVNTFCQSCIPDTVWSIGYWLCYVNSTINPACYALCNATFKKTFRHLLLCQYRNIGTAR
Description: PDSP Primary Binding target: CHRM4 - Compounds are tested at 10 uM concentration, plate are incubated at room temperature in the dark for 90 minutes. Reaction are stopped by vacuum filtration onto 0.3% polyethyleneimine soaked filter mats using Filtermate harvester. Scintilation cocktail is then melted onto microwave-dried filters on a hot plate and the radio activity is counted in Microbia counter.

Chain of D(3) dopamine receptor (Homo sapiens) (P35462 whole entry): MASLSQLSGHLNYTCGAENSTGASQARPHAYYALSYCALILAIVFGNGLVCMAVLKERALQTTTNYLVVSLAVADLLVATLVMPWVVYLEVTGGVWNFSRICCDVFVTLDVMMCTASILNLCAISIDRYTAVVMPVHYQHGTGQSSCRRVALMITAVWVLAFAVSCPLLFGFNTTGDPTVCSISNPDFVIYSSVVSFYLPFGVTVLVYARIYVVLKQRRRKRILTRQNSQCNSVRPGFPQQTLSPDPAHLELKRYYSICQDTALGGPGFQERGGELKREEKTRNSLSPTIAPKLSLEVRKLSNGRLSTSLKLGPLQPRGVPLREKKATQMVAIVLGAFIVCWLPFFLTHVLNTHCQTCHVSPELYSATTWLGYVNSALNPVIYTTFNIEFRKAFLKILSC
Chain of Sodium-dependent noradrenaline transporter (Homo sapiens) (P23975 whole entry): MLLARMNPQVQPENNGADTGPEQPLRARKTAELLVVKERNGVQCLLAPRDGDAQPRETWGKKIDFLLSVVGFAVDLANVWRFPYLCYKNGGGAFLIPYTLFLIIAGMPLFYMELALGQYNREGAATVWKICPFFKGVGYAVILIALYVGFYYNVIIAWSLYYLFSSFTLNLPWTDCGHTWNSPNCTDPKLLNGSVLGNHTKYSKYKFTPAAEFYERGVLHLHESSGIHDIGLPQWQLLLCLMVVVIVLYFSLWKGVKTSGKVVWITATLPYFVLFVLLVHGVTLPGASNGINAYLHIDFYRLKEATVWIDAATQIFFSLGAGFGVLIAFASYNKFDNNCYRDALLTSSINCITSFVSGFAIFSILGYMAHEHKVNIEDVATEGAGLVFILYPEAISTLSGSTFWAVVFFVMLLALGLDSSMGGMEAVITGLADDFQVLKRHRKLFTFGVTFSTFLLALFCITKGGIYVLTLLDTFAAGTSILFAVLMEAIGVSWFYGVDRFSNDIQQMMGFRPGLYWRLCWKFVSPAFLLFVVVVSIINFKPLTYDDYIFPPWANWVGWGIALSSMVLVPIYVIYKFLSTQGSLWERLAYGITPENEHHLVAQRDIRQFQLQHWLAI
Chain of Beta-1 adrenergic receptor (Homo sapiens) (P08588 whole entry, looked up): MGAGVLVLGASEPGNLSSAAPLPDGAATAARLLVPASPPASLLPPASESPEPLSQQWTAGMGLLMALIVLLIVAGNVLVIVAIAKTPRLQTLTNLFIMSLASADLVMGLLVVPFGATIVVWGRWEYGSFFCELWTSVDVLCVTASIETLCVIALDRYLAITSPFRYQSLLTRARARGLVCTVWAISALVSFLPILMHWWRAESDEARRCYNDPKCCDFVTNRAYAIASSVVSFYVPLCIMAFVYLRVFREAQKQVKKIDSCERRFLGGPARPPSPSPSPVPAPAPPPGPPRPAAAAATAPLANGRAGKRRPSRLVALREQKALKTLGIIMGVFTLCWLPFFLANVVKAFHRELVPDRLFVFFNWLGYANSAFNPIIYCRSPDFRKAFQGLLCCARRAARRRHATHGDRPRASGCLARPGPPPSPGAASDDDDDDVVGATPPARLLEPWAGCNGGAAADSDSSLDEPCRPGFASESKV
Chain of Mu-type opioid receptor (Homo sapiens) (P35372 whole entry): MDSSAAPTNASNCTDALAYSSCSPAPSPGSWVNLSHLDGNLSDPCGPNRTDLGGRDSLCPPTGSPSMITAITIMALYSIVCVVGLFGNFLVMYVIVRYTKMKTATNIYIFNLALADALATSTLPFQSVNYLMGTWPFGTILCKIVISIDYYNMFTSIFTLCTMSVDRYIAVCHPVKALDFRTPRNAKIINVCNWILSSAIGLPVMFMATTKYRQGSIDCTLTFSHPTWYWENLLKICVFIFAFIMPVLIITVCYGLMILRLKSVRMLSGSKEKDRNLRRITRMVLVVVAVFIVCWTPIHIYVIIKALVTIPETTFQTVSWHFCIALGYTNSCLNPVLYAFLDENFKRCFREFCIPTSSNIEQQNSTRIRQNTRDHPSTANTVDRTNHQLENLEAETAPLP

| SMILES | inhibition [1] | inhibition [2] | inhibition [3] | inhibition [4] | inhibition [5] | inhibition [6] | inhibition [7] | inhibition [8] | inhibition [9] |
| --- | --- | --- | --- | --- | --- | --- | --- | --- | --- |
| Cc1c(P(=S)(c2ccccc2)c2ccccc2)n2ccccc2[n+]1C/C=C/c1ccccc1 | 89% | 25.8% | 45.7% | 83.2% | 36.1% | 87.3% | 48.5% | 57.4% | 68.4% |
| NCCc1cn(S(=O)(=O)c2c(Cl)nc3sccn23)c2ccccc12 | 0.78% | 38.7% | 47.2% | 84.1% | 44.4% | 16.8% | 32% | 15.1% | 16.1% |
| CN1CCN(c2ccc(Nc3c4ccccc4nc4ccccc34)cc2)CC1 | 42.3% | 13.3% | 66% | 84.7% | 0.45% | 12.4% | -2.42% | 63.8% | 24.6% |
| Cc1cc(NC(=O)NCCN2CCC(O)(Cc3ccccc3)CC2)c2ccccc2n1 | 44% | 21.1% | 29.6% | 69.5% | 25.5% | 43.3% | 27.4% | 16.1% | 17.1% |
| C[N+]1(C)[C@@H]2C[C@@H](OC(=O)C(O)(c3cccs3)c3cccs3)C[C@H]1[C@@H]1O[C@@H]12 | 97.4% | 20% | 8.74% | -2.62% | 7.61% | 10.3% | 24% | 94.2% | 98.8% |
| CN[C@@H]1CCc2[nH]c3ccc(C(N)=O)cc3c2C1 | -1.58% | 64.7% | 13.7% | -1.01% | 1.5% | 54.7% | 47.6% | 10.5% | -3.71% |
| Cc1ccc(O)c([C@H](CCN(C(C)C)C(C)C)c2ccccc2)c1 | 0% | 35.3% | 36.7% | 29.7% | -3.65% | -3.49% | 46.2% | 97.6% | 0.61% |
| NC(=O)[C@@H]1CCCN1C(=O)[C@H](Cc1c[nH]cn1)NC(=O)[C@@H]1CCC(=O)N1 | 5.07% | 18.4% | 14% | 35.9% | -1.74% | 45.1% | 4.54% | -6.24% | -2.83% |
| N#Cc1ccc(NC(=O)Nc2ccccc2Br)c2nn[nH]c12 | 6.48% | 13.3% | -2.75% | 35.6% | 26.6% | 27.1% | 43.3% | 29.7% | 33.1% |
| c1nc(CC2CCNCC2)c[nH]1 | 1.07% | 14.9% | 23% | 15.7% | -4.6% | -6.55% | -4.62% | 10.6% | -0.76% |
